Calls of active or inactive are those of the source.
What was measured:
[1] = biological target: T1, Calpain-2 catalytic subunit (Sus scrofa, UniProt P43367); assay: m-calpain protease blockers, concentration series – biochemical, fluorogenic peptide substrate, dose response (AID 1420); format: functional
T1 sequence (P43367 whole entry): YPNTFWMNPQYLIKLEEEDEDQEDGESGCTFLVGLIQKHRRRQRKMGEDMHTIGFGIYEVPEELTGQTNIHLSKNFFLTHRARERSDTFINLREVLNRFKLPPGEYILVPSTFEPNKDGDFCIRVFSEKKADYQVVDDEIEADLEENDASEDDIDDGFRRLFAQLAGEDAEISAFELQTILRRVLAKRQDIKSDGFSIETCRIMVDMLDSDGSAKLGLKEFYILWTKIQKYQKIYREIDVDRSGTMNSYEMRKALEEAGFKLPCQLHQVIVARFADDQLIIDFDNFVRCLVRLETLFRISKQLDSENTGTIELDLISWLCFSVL

[2] = biological target: Induced myeloid leukemia cell differentiation protein Mcl-1 (Homo sapiens, UniProt Q07820); format: functional
Beta-galactosidase = Beta-galactosidase (Escherichia coli, UniProt Q8VNN2); assay: Dose response counterscreen for EBI2 assay utilizing the enzyme, b-galactosidase.; format: functional
[3] = blockers of HIV-1 ZM109 envelope-driven cell-cell fusion – HeLa effector, CEM target cells, luciferase, cherry-pick, dose response (AID 652058); format: functional, cell-based;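 note: luciferase signal from HIV-1 Env mediated cell-cell fusion of effector and target cells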
[4] = blockers of HIV-1 envelope-mediated cell-cell fusion – cherry-pick, dose response (AID 652057); format: functional, cell-based
[5] = HIV-1 AD8 envelope cell-cell fusion blockers – cherry-pick, dose response (AID 652062); format: functional, cell-based;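 note: luciferase signal from cell-cell fusion driven by HIV-1 clade B AD8 Env; potency is for inhibitors of fusion seen as a drop in luminescence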
[6] = biological target: T2, Ubiquitin-conjugating enzyme E2 N (Homo sapiens, UniProt P61088); format: functional;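 note: Dose-response confirmation in a TR-FRET assay detecting UBC13-driven polyubiquitin chain formation, inhibition measured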
T2 sequence (P61088 whole entry): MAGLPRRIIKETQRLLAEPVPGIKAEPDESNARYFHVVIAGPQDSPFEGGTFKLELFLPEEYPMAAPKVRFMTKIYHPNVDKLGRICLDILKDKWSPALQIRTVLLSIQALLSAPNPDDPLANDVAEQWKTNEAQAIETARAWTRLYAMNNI

[7] = biological target: Eukaryotic translation initiation factor 4E (Mus musculus, UniProt P63073); assay: blockers of eIF4G binding by eIF4E – biochemical, TR-FRET, dose response (AID 855); format: functional;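 note: potency for disrupting eIF4E binding to eIF4GI seen as loss of FRET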
[8] = biological target: Heat shock protein HSP 90-alpha (Homo sapiens, UniProt P07900); format: functional, organism-based
[9] = NIH-3T3 fibroblast cytotoxicity, dose response, cytotoxicity control, cell-based, fluorescence, Alamar Blue, secondary assay (AID 2327); format: functional;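 note: NIH-3T3 mouse fibroblasts cultured with fluconazole at 8 µg/mL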
[10] = fluconazole-exposed Candida albicans growth modulators – fluorescence, retest, confirmation (AID 2467); format: functional, cell-based
[11] = Luminescence Cell-Based Dose Retest to Confirm Inhibitors of Cancer Stem Cells. [Related pubchem assays (depositor defined):AID2717, AID2721]; format: functional; settings: Homo sapiens

Beta-galactosidase, sequence (Q8VNN2 whole entry, the tested form may be a part): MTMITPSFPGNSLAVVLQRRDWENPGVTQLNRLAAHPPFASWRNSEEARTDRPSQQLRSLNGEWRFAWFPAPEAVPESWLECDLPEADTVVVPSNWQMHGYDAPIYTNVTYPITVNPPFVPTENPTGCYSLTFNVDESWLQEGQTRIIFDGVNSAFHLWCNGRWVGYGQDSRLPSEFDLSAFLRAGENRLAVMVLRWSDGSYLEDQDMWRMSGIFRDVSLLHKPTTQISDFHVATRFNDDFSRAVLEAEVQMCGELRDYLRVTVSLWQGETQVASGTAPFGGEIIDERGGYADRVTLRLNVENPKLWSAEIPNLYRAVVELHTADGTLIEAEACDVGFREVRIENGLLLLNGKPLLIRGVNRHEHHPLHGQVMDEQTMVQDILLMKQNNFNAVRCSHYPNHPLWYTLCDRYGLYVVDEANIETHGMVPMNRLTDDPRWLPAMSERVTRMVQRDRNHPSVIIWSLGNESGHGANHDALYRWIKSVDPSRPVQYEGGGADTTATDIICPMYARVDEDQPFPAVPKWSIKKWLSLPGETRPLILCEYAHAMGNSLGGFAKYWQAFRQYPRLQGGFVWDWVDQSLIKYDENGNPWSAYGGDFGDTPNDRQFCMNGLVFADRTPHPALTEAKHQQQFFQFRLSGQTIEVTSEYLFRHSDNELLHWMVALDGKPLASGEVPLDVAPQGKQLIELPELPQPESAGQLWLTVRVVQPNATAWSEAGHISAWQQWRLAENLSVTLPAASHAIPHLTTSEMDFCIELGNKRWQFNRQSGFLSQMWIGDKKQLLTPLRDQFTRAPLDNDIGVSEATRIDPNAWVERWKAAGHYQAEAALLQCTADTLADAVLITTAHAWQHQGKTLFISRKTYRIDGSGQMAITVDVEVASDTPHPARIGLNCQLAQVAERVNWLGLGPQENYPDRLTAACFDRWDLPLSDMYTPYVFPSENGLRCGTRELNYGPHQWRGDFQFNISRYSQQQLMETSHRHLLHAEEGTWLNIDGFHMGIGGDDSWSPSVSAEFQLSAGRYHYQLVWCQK
Eukaryotic translation initiation factor 4E, sequence (P63073 whole entry): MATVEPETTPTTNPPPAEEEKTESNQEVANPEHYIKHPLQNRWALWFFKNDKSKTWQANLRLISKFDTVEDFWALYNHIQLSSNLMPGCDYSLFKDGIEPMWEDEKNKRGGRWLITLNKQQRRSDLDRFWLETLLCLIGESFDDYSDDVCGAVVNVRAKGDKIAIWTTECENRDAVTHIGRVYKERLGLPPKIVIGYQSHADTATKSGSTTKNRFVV
Induced myeloid leukemia cell differentiation protein Mcl-1, sequence (Q07820 whole entry): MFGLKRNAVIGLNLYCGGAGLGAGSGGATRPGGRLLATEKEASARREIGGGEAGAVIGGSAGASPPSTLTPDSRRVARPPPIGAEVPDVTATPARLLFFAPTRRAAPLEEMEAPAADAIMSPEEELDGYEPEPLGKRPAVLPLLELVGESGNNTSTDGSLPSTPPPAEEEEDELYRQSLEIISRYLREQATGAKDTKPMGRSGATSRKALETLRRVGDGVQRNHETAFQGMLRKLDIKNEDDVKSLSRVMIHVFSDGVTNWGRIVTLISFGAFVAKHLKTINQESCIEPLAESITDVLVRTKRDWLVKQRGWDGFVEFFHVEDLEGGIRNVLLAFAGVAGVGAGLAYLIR

With `N#Cc1c(NC(=O)c2cccc(S(=O)(=O)Nc3ccc(C(=O)O)cc3)c2)sc2c1CCCC2` the IC50 [1] was 13.7 µM (not active) and the IC50 [2] was 6.52 µM (active).

With `O=C1CCN(Cc2ccccc2)C=C1c1ccc(Br)cc1` the IC50 (Beta-galactosidase) was > 80 µM (inactive).

With `O=C(Cn1nc(-c2ccc3c(c2)OCCO3)ccc1=O)Nc1cccc(NC(=O)c2ccccn2)c1` the IC50 [1] was > 50 µM (not active).

In the case of `CC1CC1C(=O)OCC(=O)Nc1ccccc1Oc1ccccc1` (stereo not drawn), the IC50 [1] is reported as 33.3 µM (not active).

In the case of `COc1ccc(-c2cc(C3CCN(c4cc(Cl)nc(N)n4)CC3)[nH]n2)cc1`, the AC50 [3] is reported as 0.295 µM (active), the AC50 [4] is reported as 42.9 µM (active) and the AC50 [5] is reported as 26.4 µM (active). The IC50 [6] was > 20 µM (inactive).

In the case of `CC1CCN(c2nc3ccccc3n2CC(=O)c2ccccc2)CC1`, the IC50 [1] is reported as > 50 µM (not active).

In the case of `O=C(/C=C/c1ccccc1)N1CCN(c2c(Cl)cccc2[N+](=O)[O-])CC1`, the IC50 (Beta-galactosidase) is reported as > 80 µM (inactive).

With `CCCCCCSc1nnc(-c2cnn(-c3ccccc3)c2-n2cccc2)n1C` the IC50 [1] was 7.59 µM (not active).

With `CNC(=S)N1N=C(c2ccc(OC)cc2)CC1c1ccc(N(C)C)cc1` (stereo not drawn) the IC50 (Beta-galactosidase) was > 80 µM (inactive).

For `CCOc1cc(C(=O)Nc2ccc3c4c(cccc24)C(=O)N3CC)cc(OCC)c1OCC`, the IC50 [7] was > 64 µM (inactive).

In the case of `CC1=CC2=NC(=O)CC(C)(C(=O)N(CC(=O)NC3CCCC3)c3cc(C)cc(C)c3)N2C=C1` (stereo not drawn), the IC50 [7] is reported as 50 µM (inactive).

For `CCN(CC)C1CC(=O)N(c2cccc(Cl)c2)C1=O` (stereo not drawn), the AC50 [8] was 2.21 µM (active).

With `CCOC(=O)C1CCN(C(=O)/C=C/c2ccc(OC)cc2)CC1` the IC50 (Beta-galactosidase) was > 80 µM (inactive).

For `Cc1cc(C)n2nc(C(=O)NCc3ccccc3)cc2n1`, the IC50 [7] was > 64 µM (inactive).

For `O=C(COc1ccc(Br)cc1)N1CCN(S(=O)(=O)/C=C/c2ccccc2)CC1`, the IC50 (Beta-galactosidase) was > 80 µM (inactive).

In the case of `Cc1cccc(N2CCN(C(=O)c3cc4c(=O)[nH]c5ccccc5c4n3C)CC2)c1C`, the IC50 (Beta-galactosidase) is reported as > 80 µM (inactive).

In the case of `COc1ccc(NC(=O)c2c(N)no[n+]2[O-])cc1`, the EC50 [9] is reported as 1.6 µM (active), the EC50 [10] is reported as 2.19 µM (active) and the AC50 [11] is reported as 0.754 µM (active).
